Laboratory results as given in ChEMBL document CHEMBL1201862, “PubChem BioAssay data set” (2004).
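Compound exposure: 48 hours, 5 concentrations, 96-well plates. GI50: concentration for 50% inhibition of growth.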 Calls of active or inactive are those of the source. Rule as the data show it: active = GI50 up to about 1.1 µM and inactive = higher.

How the values were obtained:
Assay in all cases: NCI-60 cell line screen, 48 h
786-0 = system: 786-0
DMS-114 = system: DMS-114
DMS-273 = system: DMS-273
HCC 2998 = system: HCC 2998
HT-29 = system: HT-29
K562 = system: K562
LOX IMVI = system: LOX IMVI
NCI-H23 = system: NCI-H23
NCI-H460 = system: NCI-H460
OVCAR-5 = system: OVCAR-5
RXF 393 = system: RXF 393
SF-268 = system: SF-268
SK-MEL-28 = system: SK-MEL-28
KM-20L2 = system: KM-20L2
HOP-92 = system: HOP-92
BT-549 = system: BT-549
MCF7 = system: MCF7
MDA-MB-231 = system: MDA-MB-231
MDA-MB-435 = system: MDA-MB-435
T47D = system: T47D

Measured: GI50

CC(=O)NNc1nc(C)c(C(=O)/C=C/c2ccc(/C=C/C(=O)c3sc(NNC(C)=O)nc3C)cc2)s1
inactive: 786-0 > 100 µM | DMS-114 > 100 µM | DMS-273 > 100 µM | HCC 2998 > 100 µM | HT-29 > 100 µM | K562 > 100 µM | LOX IMVI > 100 µM | NCI-H23 > 100 µM | NCI-H460 > 100 µM | OVCAR-5 > 100 µM | RXF 393 > 100 µM | SF-268 > 100 µM | SK-MEL-28 > 100 µM

Cc1ccc(NC(=O)C(=O)Cc2cccc[n+]2[O-])cc1C
inactive: 786-0 > 100 µM | DMS-114 > 100 µM | HCC 2998 > 100 µM | HT-29 > 100 µM | K562 > 100 µM | KM-20L2 > 100 µM | LOX IMVI > 100 µM | NCI-H23 > 100 µM | NCI-H460 > 100 µM | OVCAR-5 > 100 µM | RXF 393 > 100 µM | SF-268 > 100 µM | SK-MEL-28 > 100 µM

CCCCCCCCCCCCCC(=O)NCO
inactive: 786-0 > 100 µM | DMS-114 > 100 µM | HCC 2998 > 100 µM | HOP-92 > 100 µM | HT-29 > 100 µM | KM-20L2 > 100 µM | LOX IMVI > 100 µM | NCI-H23 > 100 µM | NCI-H460 > 100 µM | OVCAR-5 > 100 µM | RXF 393 > 100 µM | SF-268 > 100 µM | SK-MEL-28 > 100 µM

CC(=O)Nc1ccc(S(=O)(=O)N/N=C(\C)CN2C(=O)c3ccccc3C2=O)cc1
inactive: 786-0 > 100 µM | DMS-273 > 100 µM | HCC 2998 > 100 µM | HT-29 > 100 µM | K562 > 100 µM | KM-20L2 > 100 µM | NCI-H23 > 100 µM | NCI-H460 > 100 µM | OVCAR-5 > 100 µM

Clc1ccc(OCc2nnc3n2N=C(c2ccccc2)CS3)c(Cl)c1
inactive: 786-0 9.48 µM | DMS-114 > 100 µM | DMS-273 5.56 µM | HCC 2998 > 100 µM | HOP-92 4.21 µM | HT-29 5.74 µM | K562 4.25 µM | LOX IMVI 1.64 µM | NCI-H23 5.66 µM | NCI-H460 5 µM | OVCAR-5 5.78 µM | RXF 393 26.4 µM | SF-268 8.73 µM | SK-MEL-28 > 100 µM

CCCP1(=O)C=C(C)C(=C(Cl)Cl)C(C)=C1 (stereo not drawn)
inactive: 786-0 44.5 µM | DMS-114 36.1 µM | HCC 2998 32.3 µM | HOP-92 24.2 µM | HT-29 43 µM | K562 30.8 µM | KM-20L2 18.3 µM | NCI-H23 34.7 µM | NCI-H460 37.4 µM | OVCAR-5 > 100 µM | RXF 393 25.9 µM | SF-268 25.9 µM | SK-MEL-28 44.1 µM

CC(=O)c1ccccc1NC(=O)C(=O)C(C(=O)c1ccccc1-c1ccccc1)C1OC(=O)c2ccccc21 (stereo not drawn)
inactive: 786-0 18.6 µM | DMS-273 31.9 µM | HCC 2998 16.2 µM | HT-29 26.9 µM | K562 25.3 µM | KM-20L2 26.6 µM | LOX IMVI 18.7 µM | NCI-H23 16.5 µM | NCI-H460 19.1 µM | OVCAR-5 29.2 µM | RXF 393 11.5 µM

N#CCC(=O)Nc1cccc(C(F)(F)F)c1
inactive: 786-0 > 100 µM | DMS-273 > 100 µM | HCC 2998 > 100 µM | HT-29 > 100 µM | K562 > 10 µM | KM-20L2 > 100 µM | LOX IMVI > 100 µM | NCI-H23 > 100 µM | NCI-H460 > 100 µM | OVCAR-5 > 100 µM | RXF 393 > 100 µM | SF-268 > 100 µM | SK-MEL-28 > 100 µM

c1cnc2c(c1)-n1cccc1C1(CCSCC1)NN2
inactive: 786-0 > 100 µM | DMS-273 > 100 µM | HCC 2998 > 100 µM | HT-29 > 100 µM | K562 89.5 µM | LOX IMVI 68.7 µM | NCI-H460 83.4 µM | OVCAR-5 > 100 µM | SF-268 > 100 µM | SK-MEL-28 > 100 µM

FC(F)(F)C1(c2ccccc2)SCc2nc3ccccc3n21 (stereo not drawn)
inactive: 786-0 > 100 µM | BT-549 > 100 µM | HCC 2998 > 100 µM | HOP-92 47.2 µM | HT-29 62.5 µM | K562 43.7 µM | LOX IMVI 97.5 µM | MCF7 > 100 µM | MDA-MB-231 > 100 µM | MDA-MB-435 40.6 µM | NCI-H23 71.9 µM | NCI-H460 80.9 µM | OVCAR-5 > 100 µM | RXF 393 > 100 µM | SF-268 > 100 µM | SK-MEL-28 > 100 µM | T47D 62.8 µM

Cc1cc(N2CCCCC2)nc2ccc(Cc3ccc4nc(N5CCCCC5)cc(C)c4c3)cc12
inactive: 786-0 > 100 µM | BT-549 > 100 µM | HCC 2998 22.8 µM | HOP-92 > 100 µM | HT-29 23.6 µM | K562 32.1 µM | LOX IMVI > 100 µM | MCF7 > 100 µM | MDA-MB-231 > 100 µM | MDA-MB-435 > 100 µM | NCI-H23 > 100 µM | NCI-H460 > 100 µM | OVCAR-5 > 100 µM | RXF 393 > 100 µM | SF-268 > 100 µM | SK-MEL-28 > 100 µM | T47D 60.7 µM
